In ChEMBL document CHEMBL3400074, “Development of 2-amino-5-phenylthiophene-3-carboxamide derivatives as novel inhibitors of Mycobacterium tuberculosis DNA GyrB domain” (Bioorg Med Chem, 2015):
≈ marks a conversion by molar mass, not a printed value.

Tested on: Mycobacterium tuberculosis
Test: Antibacterial activity against multidrug-resistant Mycobacterium tuberculosis H37Rv ATCC 27294 after 28 days by agar dilution method
Assay type: functional
Conditions: H37Rv ATCC 27294, 672 h

Row | Structure (SMILES) | MIC
1 | NC(=O)c1cc(-c2ccccc2)sc1NC(=O)Nc1ccc(Br)cc1 | 15 µM (≈ 6.25 µg/mL)
2 | NC(=O)c1cc(-c2ccccc2)sc1NC(=O)Nc1ccc(Cl)cc1 | 8.42 µM (≈ 3.13 µg/mL)
3 | NC(=O)c1cc(-c2ccccc2)sc1NC(=O)Nc1ccc(F)cc1 | 17.6 µM (≈ 6.25 µg/mL)
4 | NC(=O)c1cc(-c2ccccc2)sc1NC(=O)Nc1ccc([N+](=O)[O-])cc1 | 16.3 µM (≈ 6.24 µg/mL)
5 | NC(=O)c1cc(-c2ccccc2)sc1NC(=O)Nc1ccccc1 | 9.27 µM (≈ 3.13 µg/mL)
6 | Cc1ccc(NC(=O)Nc2sc(-c3ccccc3)cc2C(N)=O)cc1 | 35.6 µM (≈ 12.5 µg/mL)
7 | NC(=O)c1cc(-c2ccccc2)sc1NC(=O)NCc1ccccc1 | 18.5 µM (≈ 6.5 µg/mL)
8 | CC(C)NC(=O)Nc1sc(-c2ccccc2)cc1C(N)=O | 10.2 µM (≈ 3.11 µg/mL)
9 | NC(=O)c1cc(-c2ccccc2)sc1NC(=S)Nc1ccc(Br)cc1 | 18 µM (≈ 7.78 µg/mL)
10 | NC(=O)c1cc(-c2ccccc2)sc1NC(=S)Nc1ccc(Cl)cc1 | 80.7 µM (≈ 31.3 µg/mL)
11 | NC(=O)c1cc(-c2ccccc2)sc1NC(=S)Nc1ccc(F)cc1 | 67.4 µM (≈ 25 µg/mL)
12 | NC(=O)c1cc(-c2ccccc2)sc1NC(=S)Nc1ccc([N+](=O)[O-])cc1 | 78.5 µM (≈ 31.3 µg/mL)
13 | NC(=O)c1cc(-c2ccccc2)sc1NC(=S)Nc1ccccc1 | 70.8 µM (≈ 25 µg/mL)
14 | Cc1ccc(NC(=S)Nc2sc(-c3ccccc3)cc2C(N)=O)cc1 | 8.5 µM (≈ 3.12 µg/mL)
15 | NC(=O)c1cc(-c2ccccc2)sc1NC(=S)NCc1ccccc1 | 34 µM (≈ 12.5 µg/mL)
16 | CC(C)NC(=S)Nc1sc(-c2ccccc2)cc1C(N)=O | 19.6 µM (≈ 6.26 µg/mL)

Row | Structure (SMILES) | MIC
17 | NC(=O)c1cc(-c2ccccc2)sc1NC(=O)c1ccc(Cl)cc1 | 8.76 µM (≈ 3.13 µg/mL)
18 | NC(=O)c1cc(-c2ccccc2)sc1NC(=O)c1ccc([N+](=O)[O-])cc1 | 8.48 µM (≈ 3.12 µg/mL)
19 | NC(=O)c1cc(-c2ccccc2)sc1NC(=O)c1cccc2ccccc12 | 25 µM (≈ 9.3 µg/mL)
20 | NC(=O)c1cc(-c2ccccc2)sc1NC(=O)c1cnccn1 | 38.6 µM (≈ 12.5 µg/mL)
21 | NC(=O)c1cc(-c2ccccc2)sc1NC(=O)c1cc2ccccc2[nH]1 | 34.6 µM (≈ 12.5 µg/mL)
22 | NC(=O)c1cc(-c2ccccc2)sc1NC(=O)c1ccc(Oc2ccccc2)cc1 | 15.1 µM (≈ 6.25 µg/mL)
23 | NC(=O)c1cc(-c2ccccc2)sc1NC(=O)c1ccccc1 | 4.84 µM (≈ 1.56 µg/mL)
24 | CC(=O)Nc1sc(-c2ccccc2)cc1C(N)=O | 24 µM (≈ 6.26 µg/mL)
25 | CCC(=O)Nc1sc(-c2ccccc2)cc1C(N)=O | 22.8 µM (≈ 6.26 µg/mL)
26 | CCCC(=O)Nc1sc(-c2ccccc2)cc1C(N)=O | 10.8 µM (≈ 3.13 µg/mL)
27 | NC(=O)c1cc(-c2ccccc2)sc1NC(=O)C1CCCC1 | 39.7 µM (≈ 12.5 µg/mL)
28 | NC(=O)c1cc(-c2ccccc2)sc1NC(=O)C1CCCCC1 | 9.48 µM (≈ 3.11 µg/mL)
29 | CC[C@@H](CO)NCCN[C@@H](CC)CO [ETHAMBUTOL] | 7.64 µM (≈ 1.56 µg/mL)
30 | NNC(=O)c1ccncc1 [ISONIAZID] | 0.66 µM (≈ 0.0905 µg/mL)
31 | CC1COc2c(N3CCN(C)CC3)c(F)cc3c(=O)c(C(=O)O)cn1c23 (configuration not stated) [OFLOXACIN] | 2.16 µM (≈ 0.781 µg/mL)
32 | CO[C@H]1/C=C/O[C@@]2(C)Oc3c(C)c(O)c4c(O)c(c(/C=N/N5CCN(C)CC5)c(O)c4c3C2=O)NC(=O)/C(C)=C\C=C\[C@H](C)[C@H](O)[C@@H](C)[C@@H](O)[C@@H](C)[C@H](OC(C)=O)[C@@H]1C [RIFAMPIN] | 0.23 µM (≈ 0.189 µg/mL)
